# Assays:
# [1] = tested on: Yellow Fever Virus (YF-IRES-Luc); assay: microbe, parasite or virus in culture; assay type: cell-based
# fire-fly luciferase = fire-fly luciferase (Photinus pyralis, UniProt P08659, K549A/L550V/N119G/N50D/S548I); assay: Direct luciferase inhibition assay; assay type: cell-based; conditions: cells transfected with luciferase-pcDNA3; data not shown
# [2] = In vitro hydrolytic stability assay utilizing rat plasma
# uninfected BHK cells = assay type: cell-based, hamster
# Sequence of fire-fly luciferase (P08659 whole entry N50D/N119G/S548I/K549A/L550V): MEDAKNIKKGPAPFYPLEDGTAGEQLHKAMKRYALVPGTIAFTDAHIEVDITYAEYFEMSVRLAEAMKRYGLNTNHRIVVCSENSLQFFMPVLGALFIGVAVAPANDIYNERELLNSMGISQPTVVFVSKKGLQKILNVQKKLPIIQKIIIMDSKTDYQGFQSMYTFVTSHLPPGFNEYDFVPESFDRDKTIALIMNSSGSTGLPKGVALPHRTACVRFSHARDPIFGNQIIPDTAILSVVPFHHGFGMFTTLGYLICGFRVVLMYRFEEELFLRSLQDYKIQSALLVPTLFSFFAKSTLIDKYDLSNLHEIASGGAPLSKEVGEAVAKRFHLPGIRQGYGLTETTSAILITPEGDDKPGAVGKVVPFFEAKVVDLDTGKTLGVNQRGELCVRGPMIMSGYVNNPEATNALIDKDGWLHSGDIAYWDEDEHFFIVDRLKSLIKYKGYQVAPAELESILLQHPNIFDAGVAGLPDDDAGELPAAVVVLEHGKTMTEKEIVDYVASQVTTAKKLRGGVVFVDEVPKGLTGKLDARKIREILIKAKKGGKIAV
molecule,measurement,setting,value
COC(=O)c1sc(-c2ccc(C(C)(C)C)cc2)nc1C [Compound 5l],antiflaviviral activity (in words),[1],inactive
COC(=O)c1sc(Cc2ccccc2)nc1C [Compound 5o],antiflaviviral activity (in words),[1],inactive
"COC(=O)c1sc(-c2ccccc2)nc1C(Br)Br [Compound 6a, Methyl 4-(Dibromomethyl)-2-phenylthiazole-5-carboxylate]",antiflaviviral activity (in words),[1],very weak antiflaviviral inhibitory activity
"COC(=O)c1sc(-c2cccc(Br)c2)nc1C(Br)Br [Compound 6c, Methyl 2-(3-Bromophenyl)-4-(dibromomethyl)thiazole-5-carboxylate]",antiflaviviral activity (in words),[1],weak activity
"COC(=O)c1sc(-c2ccc(Cl)c(Cl)c2)nc1C(Br)Br [Compound 6j, Methyl 4-(Dibromomethyl)-2-(3,4-dichlorophenyl)thiazole-5-carboxylate]",inhibition at 50 µM,"[1]; Yellow fever virus, BHK, read-out: % Inhibition (reduction in luciferase activity)",< 50%
"CCCCc1ccc(-c2nc(C)c(C(=O)O)s2)cc1 [Compound 8, 2-(4-Butylphenyl)-4-methylthiazole-5-carboxylic Acid]",antiflaviviral activity (in words),[1],inactive
"CCCCc1ccc(-c2nc(C)c(/C(C)=N/NC(=N)N)s2)cc1 [Compound 12, 2-(1-(2-(4-Butylphenyl)-4-methylthiazol-5-yl)ethylidene)hydrazinecarboximidamide]",reduction of luciferase activity,fire-fly luciferase,No reduction of luciferase activity was observed
same,"half-life, times higher than the lead compound 2",[2],around 6 times
Methyl 4-Methyl-2-(naphthalen-2-yl)thiazole-5-carboxylate [Compound 5k],EC50,[1],35.7 ± 22.7 µM
same,% Inhibition (reduction in luciferase activity),[1]; 50 µM,78.4%
same,GI50,uninfected BHK cells,434 ± 23.3 µM

# — PMC3119515 (Bioorganic & medicinal chemistry, 2011)
